Test system: differentiating 3T3-L1 cells
Test: Adipocyte differentiation / lipogenesis quantitated with oil red O staining
Type: cell-based
Conditions: for reduction of lipogenesis compared to control untreated adipocytes: oil red O
Method: On day 9 post-differentiation, cells were subjected to quantitative oil red O (Thermo Fisher Scientific; Waltham, Mass., USA) staining as adapted and modified from published protocols. Briefly, cells were washed twice with PBS, fixed with 10% formalin for 30 min at room temperature, and stained with oil red O working solution (˜0.2% oil red O in 99% isopropanol) for 30 min. Cells were then washed five times or with sterile water until unincorporated oil red O stain was completely removed. Images of oil red O staining in control and inhibitor-treated cells were digitally photographed using a light microscope (Olympus BX41; Tokyo, Japan). After image capture, 2-propanol (3.5 mL) was added to each dish for 10 min to dissolve the oil red O stain and absorbance was quantified in a plate reader set at 492 nm wavelength. To ensure the absorbance from oil red O staining was within the linear detection range of the plate reader, a calibration curve was established for oil red O staining in adipocytes using a previously described protocol.

`C[n+]1cccc2c(N)cccc21` [1j, 5-amino-1-methylquinolin-1-ium iodide] was tested, and the “reduction of lipogenesis compared to control untreated adipocytes” value (30 μM) was 50%, the “reduction of lipogenesis compared to control untreated adipocytes” value (60 μM) was 70% and the “lipid accumulation in differentiating pre-adipocytes (in words)” value (15, 30, 60 μM) was “concentration-dependent inhibition of lipid accumulation”.

Source: US11401243B2, “Quinoline derived small molecule inhibitors of nicotinamide N-methyltransferase (NNMT) and uses thereof” (priority 2017, dated 2022)
